ChEMBL document CHEMBL1134854, “Synthesis and biological evaluation of N-(7-indolyl)-3-pyridinesulfonamide derivatives as potent antitumor agents” (Bioorg Med Chem Lett, 2002)
pIC50: −log10 of the molar value. “And” between values parts separate entries of the source, which are not always exact repeats. Equal values may be shown once.

What was measured:
HCT-116 = assay: Inhibitory concentration in vitro against HCT116 human colon cancer cells were determined for 72 h; type: functional, cell-based; details: HCT-116, 72 h
Colon cancer cell line [1] = assay: In vivo activity as average tumor volume on day 9/average tumor volume on day 1; drug administered intraperitoneal; type: functional, Homo sapiens
Colon cancer cell line [2] = assay: In vivo activity as average tumor weight on day 22/average tumor weight in control group on day 22*100; drug administered intraperitoneal; type: functional, Homo sapiens
Colon cancer cell line [3] = assay: In vivo activity as average tumor volume on day 9/average tumor volume on day 1 drug administered per oral; type: functional, Homo sapiens
Colon cancer cell line [4] = assay: In vivo activity as average tumor weight on day 22/average tumor weight in control group on day 22*100; drug administered per oral; type: functional, Homo sapiens
Mus musculus = organism: Mus musculus; assay: Number of deaths per total number of aminals tested; 0/5; type: functional
Colon cancer cell line [5] = assay: In vivo activity as average tumor volume on day 9/average tumor volume on day 1; drug administered per oral; type: functional, Homo sapiens
Colon cancer cell line [6] = assay: In vivo activity as average tumor weight on day 22/average tumor weight in control group on day 22*100; drug administered intra venously; type: functional, Homo sapiens
Colon cancer cell line [7] = assay: In vivo activity as average tumor volume on day 9/average tumor volume on day 1; drug administered intra venously; type: functional, Homo sapiens

| SMILES | pIC50 (HCT-116) | Day 9-RTV (Colon cancer cell line [1]) | Day 22-T/C (Colon cancer cell line [2]) | Day 9-RTV (Colon cancer cell line [3]) | Day 22-T/C (Colon cancer cell line [4]) [%] | Deaths/total (Mus musculus) [%] | Day 9-RTV (Colon cancer cell line [5]) | Day 22-T/C (Colon cancer cell line [6]) [%] | Day 9-RTV (Colon cancer cell line [7]) |
| --- | --- | --- | --- | --- | --- | --- | --- | --- | --- |
| N#Cc1c[nH]c2c(NS(=O)(=O)c3ccc(N)nc3)cccc12 | 6.19 | 1.5 | 35% | 2.3 | 75 | 0 |  |  |  |
| Cc1cncc(S(=O)(=O)Nc2cccc3c(C#N)c[nH]c23)c1 | 6.72 | 0.52 | 30% |  | 106 | 0 | 3.4 |  |  |
| Nc1ccc(S(=O)(=O)Nc2cccc3c(Cl)c[nH]c23)cn1 | 6.15 | 0.3 | 26% |  | 12 | 0 | 0.19 |  |  |
| N#Cc1c[nH]c2c(NS(=O)(=O)c3cccnc3)cccc12 | 6.64 | 2.6 | 65% |  |  | 0 |  |  |  |
| O=S(=O)(Nc1cccc2c(Cl)c[nH]c12)c1ccc(O)nc1 | 6.10 | 3 | 66% |  |  | 0 |  |  |  |
| CC(C)Nc1ccc(S(=O)(=O)Nc2cccc3c(Cl)c[nH]c23)cn1 | 5.89 | 0.28 and 0.9 |  |  |  | 0 |  |  |  |
| O=S(=O)(Nc1cccc2c(Cl)c[nH]c12)c1ccc(NCCO)nc1 | 6.19 | 4.3 | 89% |  |  | 0 |  |  |  |
| Cc1cncc(S(=O)(=O)Nc2cccc3c(Cl)c[nH]c23)c1 | 6.66 | 3.7 | 82% |  |  | 0 |  |  |  |
| O=S(=O)(Nc1cccc2c(Cl)c[nH]c12)c1cccnc1 | 6.59 | 3.4 | 70% |  |  | 0 |  |  |  |
| CNc1ccc(S(=O)(=O)Nc2cccc3c(Cl)c[nH]c23)cn1 | 6.07 | 0.24 | 38% |  |  | 0 |  |  |  |
| NS(=O)(=O)c1ccc(S(=O)(=O)Nc2cccc3c(Cl)c[nH]c23)cn1 | 6.54 | 0.1 and 0.29 | 12% and 23% |  |  | 0 |  | 8 | 0.15 |
